For data set [1], the target named is T1, Pseudomonas fluorescens KMO (PfKMO) (Pseudomonas fluorescens, UniProt Q84HF5, C252S/C461S).
T1 construct: made in house; host or cells: E. coli BL21 (DE3)
Nature of the data set: biochemical. From the text:
(§1) A combination of ligand- and structural-based virtual screening approaches (see supporting information for details) was used to identify an initial library of >1000 compounds that may be suitable as potential KMO inhibitors. These compounds were screened for inhibition of Pseudomonas fluorescens KMO (PfKMO) and Homo sapiens KMO (HsKMO) using high-throughput assays by monitoring the time-dependent oxidation of NADPH at 340 nm[23].
(§2) Small-molecule compounds were supplied by Biofocus (Charles River Laboratories International Inc., MA, USA), which were identified in silico as potential inhibitors (further details are described in the Supplementary Methods). Initial inhibition assays were performed against Pseudomonas fluorescens KMO (PfKMO) and Homo sapiens KMO (HsKMO) by monitoring the time-dependent absorbance change of NADPH at 340 nm. Purified KMO protein (200 nM) was incubated in 100 µL reaction buffer (20 mM potassium phosphate pH 8.0, 7 mM 2-mercaptoethanol) containing 100 μM NADPH, 100 μM L-Kyn and 20 μM potential inhibitors in 96-well plates. […] The inhibitors identified in the initial screens were validated and re-assayed individually in a 1 cm path-length quartz micro cuvette. […] Suppliers for target inhibitor compounds are listed in Supplementary Table 11.
Supplementary Figure 1. Examples of inhibition data used to generate IC50 values for selected KMO inhibitors. Fixed concentration of L -KYN (200 µM) and NADPH (100µM) were added into reaction buffer (HsKMO: 20mM potassium phosphate pH 8.0, 7 mM 2-mercaptoethanol; PfKMO: 20 mM HEPES, 10mM sodium acetate, pH 7.5, 2mM DTT). The reaction was initiated by the addition of KMO enzyme (HsKMO: 0.5µM; PfKMO: 0.1 µM). KMO activity was measured in the presence of a range of inhibitor concentrations. […]
(§3) 3.5 Steady-state enzymatic assays.
(§4) Initial screening assays and determination of IC50 values for each potential inhibitor compound were carried out using either 0.1 µM PfKMO or 0.5 µM HsKMO at fixed […]
(§5) (HsKMO: 20 mM potassium phosphate pH 8.0, 7 mM 2-mercaptoethanol; PfKMO:
(§6) 20 mM HEPES, 10 mM sodium acetate, pH 7.5, 2 mM DTT). KMO activity was measured in the presence of a range of inhibitor concentrations by monitoring the […]
consumption of NADPH at 340 nm upon addition of enzyme via a Cary 50 UV-Vis spectrophotometer (Agilent Technologies). Rates were determined from linear regression fits to the initial linear portion of the curves. All measurements were performed in triplicate. The IC50 values for inhibitors were obtained by plotting the percentage inhibition versus the inhibitor concentration and fitting to the Morrison equation16 (equation 1) using Origin 9.0 Software (OriginLab, Northampton, MA). […]

Data set [2] deals with T2, Homo sapiens KMO (HsKMO) (Homo sapiens, UniProt O15229).
T2 construct: GST; made in house
The data set can be described thus: KMO inhibition assay, NADPH oxidation at 340 nm (HsKMO). Format: biochemical.
From the text: as §1, §2
Supplementary Figure 1. Examples of inhibition data used to generate IC50 values for selected KMO inhibitors.
NADPH (100µM) were added into reaction buffer (HsKMO: 20mM potassium phosphate pH 8.0, 7 mM 2-mercaptoethanol; PfKMO: 20 mM HEPES, 10mM sodium acetate, pH 7.5, 2mM DTT). The reaction was initiated by the addition of KMO enzyme (HsKMO: 0.5µM; PfKMO: 0.1 µM). KMO activity was measured in the presence of a range of inhibitor concentrations. […]
as §3, §4, §5, §6
consumption of NADPH at 340 nm upon addition of enzyme via a Cary 50 UV-Vis spectrophotometer (Agilent Technologies). Rates were determined from linear regression fits to the initial linear portion of the curves. All measurements were performed in triplicate. The IC50 values for inhibitors were obtained by plotting the percentage inhibition versus the inhibitor concentration and fitting to the Morrison equation16 (equation 1) using Origin 9.0 Software (OriginLab, Northampton, MA).
E + I + K!"" − E + I + K!"" ! − 4[E][I] where v0 is the enzyme activity without inhibitor, vi is the enzyme activity with ligand

Data set [3] can be described thus: in vitro. Format: in vitro ADME, canine. The following applies: dog; for Papp A→B at 1 h, 10 µM / Papp B→A at 1 h, 10 µM / recovery at 1 h, 10 µM: MDCK. The method, then: (§7) internal standard at each timepoint. […]
(§8) including an analytical internal standard.
(§9) Apparent permeability (Papp) values were determined from the relationship: […]
(§10) Where V is the volume of each Transwell compartment (apical 125 µL, basolateral 600 µL), and concentrations are the relative MS responses for compound (normalized to internal standard) in the donor chamber before incubation and acceptor chamber at the end of the incubation. Area = area of cells exposed for drug transfer (0.33 cm 2).
(§11) Efflux ratios (Papp B>A / Papp A>B) were calculated for each compound from the […]
(§12) MDR1-MDCK cell line has been engineered to overexpress the efflux transporter, MDR1 (P-glycoprotein), and a finding of good permeability B>A, but poor […]
(§13) order to confirm the involvement of MDR1 in any efflux seen, an “ef fective efflux ratio” (EER) was calculated by comparing compound efflux ratios (ER) in the two cell types, i.e. EER = ER (MDR1-MDCK)/ ER (wild-type MDCK). This ratio illustrates the effect of the over-expressed MDR1 normalised for the background movement of compound through the wild-type cells.
(§14) Lucifer Yellow (LY) was added to the apical buffer in all wells to assess viability of the cell layer. As LY cannot freely permeate lipophilic barriers, a high degree of LY […]
(§15) validity of other wells on the plate.
(§16) Compound recovery from the wells was determined from MS responses (normalized to internal standard) in donor and acceptor chambers at the end of incubation compared to response in the donor chamber pre-incubation.

Data set [4] concerns MDR1 (P-glycoprotein). The data set can be described thus: in vitro. The settings on record: dog. Type of data set: in vitro ADME, canine. The method, then:
as §7, §8, §9, §10, §11, §12, §13, §14, §15, §16

Like-named read-outs stand apart in the source and are kept apart here.

As usually defined, the IC50 is the concentration that gives 50% inhibition. In general, Papp A→B refers to the apparent permeability from the apical to the basolateral side of a cell layer. By Papp B→A is commonly meant how fast a substance crosses the layer from the basolateral side. Broadly, the efflux ratio is the permeability from basolateral to apical divided by that in the opposite direction, in the common usage.

T2 sequence (O15229 whole entry): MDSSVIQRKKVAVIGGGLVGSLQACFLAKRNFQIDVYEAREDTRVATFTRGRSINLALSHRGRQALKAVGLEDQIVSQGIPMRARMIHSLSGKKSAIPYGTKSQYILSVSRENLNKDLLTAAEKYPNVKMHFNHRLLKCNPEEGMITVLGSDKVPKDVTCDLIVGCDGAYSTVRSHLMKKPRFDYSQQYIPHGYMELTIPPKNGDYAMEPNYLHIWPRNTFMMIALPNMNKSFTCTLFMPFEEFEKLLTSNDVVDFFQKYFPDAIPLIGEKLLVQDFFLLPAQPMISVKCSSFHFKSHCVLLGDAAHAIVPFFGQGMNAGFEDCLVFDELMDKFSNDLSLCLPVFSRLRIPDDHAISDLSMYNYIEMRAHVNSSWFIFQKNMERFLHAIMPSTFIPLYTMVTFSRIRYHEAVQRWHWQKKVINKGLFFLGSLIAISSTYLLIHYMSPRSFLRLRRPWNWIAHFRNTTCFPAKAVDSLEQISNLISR
T1 sequence (Q84HF5 whole entry C252S/C461S): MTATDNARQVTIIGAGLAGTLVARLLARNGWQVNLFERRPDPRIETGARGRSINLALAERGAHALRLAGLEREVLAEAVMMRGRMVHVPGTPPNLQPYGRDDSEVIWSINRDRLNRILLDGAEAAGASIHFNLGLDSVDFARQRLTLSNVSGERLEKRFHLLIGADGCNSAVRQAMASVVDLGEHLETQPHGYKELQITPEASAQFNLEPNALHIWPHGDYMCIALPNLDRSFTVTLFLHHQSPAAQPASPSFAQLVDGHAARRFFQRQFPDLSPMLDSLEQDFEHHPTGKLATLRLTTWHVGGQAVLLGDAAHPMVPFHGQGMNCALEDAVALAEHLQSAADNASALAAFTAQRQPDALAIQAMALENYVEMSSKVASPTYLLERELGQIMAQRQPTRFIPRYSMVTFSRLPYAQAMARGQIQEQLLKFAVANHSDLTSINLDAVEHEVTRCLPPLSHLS

Regarding `O=C(O)c1ccc(-c2ccccc2C(F)(F)F)o1` [compound 11, 5-[2-(trifluoromethyl)phenyl]furan-2-carboxylic acid], the IC50 in data set [1] was 72.1 ± 1.9 µM; in data set [2], 144 µM.

On to `O=C(O)c1ccc(-c2cc(C(F)(F)F)ccc2Cl)o1` [compound 12, 5-[2-chloro-5-(trifluoromethyl)phenyl]furan-2-carboxylic acid], for which the figures for the IC50 in data set [1] and in data set [2] were 54 ± 1.6 µM and 31.8 µM, respectively.

As for `Cc1ccc2c(c1)cc(C(=O)N[C@@H](C(=O)O)c1ccccc1)n2C` [compound 7, (R)-2-(1,5-dimethyl-1H-indole-2-carboxamido)-2-phenylacetic acid], the IC50 is 101 ± 9.1 µM in data set [1] and 21.3 µM in data set [2].

With `O=C(O)CCc1ccc(-c2cccs2)n1-c1ccc(Br)cc1` [compound 2, 3-[1-(4-bromophenyl)-5-(2-thienyl)-1H-pyrrol-2-yl] propanoic acid], the values for the IC50 in data set [1] and in data set [2] were 130 ± 18.7 µM and 1.5 µM, respectively.

For the molecule `O=C(O)c1ccc(-c2cccc(Cl)c2)o1` [compound 17, 5-(3-chlorophenyl) furan-2-carboxylic acid], the IC50 in data set [1] was 15.9 ± 0.8 µM; in data set [2], 442 µM.

Regarding `CC(C)NCC(O)COc1cccc2ccccc12` (stereo not drawn) [Propranolol, reference compound], the Papp A→B at 1 h, 10 µM in data set [3] (pH 7.4, Papp A>B n=1, wild type MDCK) was found to be 52 ×10⁻⁶ cm/s; in data set [3] (pH 7.4, Papp A>B n=2, wild type MDCK) it was 57 ×10⁻⁶ cm/s; in data set [3] (pH 7.4, wild type MDCK, read-out: Papp A>B Mean), 54.5 ×10⁻⁶ cm/s; in data set [4] (MDCK-MDR1, pH 7.4, MDR1 MDCK, read-out: Papp A>B Mean), 52.5 ×10⁻⁶ cm/s; in data set [4] (MDCK-MDR1, pH 7.4, Papp A>B n=1, MDR1 MDCK), 53 ×10⁻⁶ cm/s; in data set [4] (MDCK-MDR1, pH 7.4, Papp A>B n=2, MDR1 MDCK), 52 ×10⁻⁶ cm/s. The Papp B→A at 1 h, 10 µM was found to be 30 ×10⁻⁶ cm/s in data set [3] (pH 7.4, Papp B>A n=1, wild type MDCK); 31 ×10⁻⁶ cm/s in data set [3] (pH 7.4, Papp B>A n=2, wild type MDCK); 30.5 ×10⁻⁶ cm/s in data set [3] (pH 7.4, wild type MDCK, read-out: Papp B>A Mean); 38 ×10⁻⁶ cm/s in data set [4] (MDCK-MDR1, pH 7.4, MDR1 MDCK, read-out: Papp B>A Mean); 39 ×10⁻⁶ cm/s in data set [4] (MDCK-MDR1, pH 7.4, Papp B>A n=1, MDR1 MDCK); 37 ×10⁻⁶ cm/s in data set [4] (MDCK-MDR1, pH 7.4, Papp B>A n=2, MDR1 MDCK). Besides, the recovery at 1 h, 10 µM in data set [3] (pH 7.4, wild type MDCK, read-out: Recovery A>B Mean) was 91%; in data set [3] (pH 7.4, wild type MDCK, read-out: Recovery A>B n=1) it was 88%; in data set [3] (pH 7.4, wild type MDCK, read-out: Recovery A>B n=2) it was 94%; in data set [3] (pH 7.4, wild type MDCK, read-out: Recovery B>A Mean), 80.5%; in data set [3] (pH 7.4, wild type MDCK, read-out: Recovery B>A n=1), 77%; in data set [3] (pH 7.4, wild type MDCK, read-out: Recovery B>A n=2), 84%. Besides, the recovery at 1 h, 10 µM in data set [4] (MDCK-MDR1, pH 7.4, MDR1 MDCK, read-out: Recovery A>B Mean) was determined as 92.5%; in data set [4] (MDCK-MDR1, pH 7.4, MDR1 MDCK, read-out: Recovery A>B n=1), 97%; in data set [4] (MDCK-MDR1, pH 7.4, MDR1 MDCK, read-out: Recovery A>B n=2), 88%; in data set [4] (MDCK-MDR1, pH 7.4, MDR1 MDCK, read-out: Recovery B>A Mean), 80.5%; in data set [4] (MDCK-MDR1, pH 7.4, MDR1 MDCK, read-out: Recovery B>A n=1) it was 83%; in data set [4] (MDCK-MDR1, pH 7.4, MDR1 MDCK, read-out: Recovery B>A n=2), 78%. Also, the efflux ratio at 1 h, 10 µM came out at 0.56 in data set [3] (pH 7.4, wild type MDCK, Papp B>A / Papp A>B) and 0.72 in data set [4] (pH 7.4, MDR1 MDCK, Papp B>A / Papp A>B).

For the origin of these results see article PMC6656724 (Communications Biology, 2019).
